Read-outs that look alike come from different tables or passages of the source.
How the values were obtained:
Format in all cases: in vivo
[1] = tested on: Sprague-Dawley rats; details: tail vein
[2] = tested on: Sprague-Dawley rats; experiment: Pharmacological effect and adverse reactions under the equivalent dose (2ED50), Group D compounds; details: for Righting reflex duration / Sedation duration / Onset time: 2ED50, tail vein, rats, n=8; for Adverse reaction: Convulsions / Adverse reaction: Cough, broken-winded / Adverse reaction: Euphoria / Adverse reaction: Four limbs rigidity / Adverse reaction: Red urine / Adverse reaction: Slower breathing, Tetany convulsion / Adverse reaction: Systemic stiffness, Convulsions, Opisthotonus / Adverse reaction: Tongue stretching / Adverse reaction: Tremor: equivalent dose (2 × ED50), number of rats of n = 8
Source text: Evaluation index: onset time: from the completion of drug injection to the disappearance of forepaw righting reflex in rats; Duration of anesthesia: the time from the disappearance of rat forepaw righting reflex to the recovery of rat forepaw righting reflex; Recovery time of anesthesia: the time from the […] to complete recovery;

[3] = tested on: Sprague-Dawley rats; experiment: animal or person; details: rats; for ED50: LORR, up and down method, tail vein, class symbols
Source text: Evaluating indicator: The end point of anesthesia: the disappearance of forepaw righting reflex (lorr) was used as the end point of anesthesia; General anesthesia effect: the disappearance of forepaw righting reflex in rats lasting for 30 seconds is taken as the index of general anesthesia effect; Anesthesia recovery index: the recovery of rat forepaw righting reflex was used as the index of anesthesia recovery.

[4] = Rattus norvegicus, read-out: ED50

CCOC(OC)(OC)C(=O)c1cncn1[C@H](C)c1ccccc1 [Compound D78]
Minimal lethal dose [1]: >6.8 mg/kg | Righting reflex duration [2]: 4.02 ± 1.35 min | Sedation duration [2]: 7.29 ± 1.20 min | Onset time ([2]; unit s): <0.5 min | Adverse reaction: Convulsions [2]: 0 | Adverse reaction: Cough, broken-winded [2]: 0 | Adverse reaction: Euphoria [2]: 0 | Adverse reaction: Four limbs rigidity [2]: 0 | Adverse reaction: Red urine [2]: 8 | Adverse reaction: Slower breathing, Tetany convulsion [2]: 0 | Adverse reaction: Systemic stiffness, Convulsions, Opisthotonus [2]: 2 | Adverse reaction: Tongue stretching [2]: 1 | Adverse reaction: Tremor [2]: 0 | ED50 [3, 4]: 0.5 to 1 mg/kg | Approximate therapeutic index [3]: >6.2

C=CCOCC(OC)(OC)C(=O)c1cncn1[C@H](C)c1ccccc1 [Compound D75]
Minimal lethal dose [1]: >11.2 mg/kg | Righting reflex duration [2]: 1.59 ± 0.67 min | Sedation duration [2]: 5.28 ± 0.68 min | Onset time ([2]; unit s): <0.5 min | Adverse reaction: Convulsions [2]: 0 | Adverse reaction: Cough, broken-winded [2]: 0 | Adverse reaction: Euphoria [2]: 0 | Adverse reaction: Four limbs rigidity [2]: 0 | Adverse reaction: Red urine [2]: 8 | Adverse reaction: Slower breathing, Tetany convulsion [2]: 0 | Adverse reaction: Systemic stiffness, Convulsions, Opisthotonus [2]: 0 | Adverse reaction: Tongue stretching [2]: 0 | Adverse reaction: Tremor [2]: 0 | ED50 [3]: +++++ (+++++ indicates that the measured ED50 is greater than 6.00 mg/kg (excluding 6.00 mg/kg)) | Approximate therapeutic index [3]: >5.4

CCOC(OCC)C(=O)c1cncn1[C@H](C)c1ccccc1 [Compound D88]
Minimal lethal dose [1]: >2.6 mg/kg | Righting reflex duration [2]: 1.86 ± 1.02 min | Sedation duration [2]: 7.08 ± 1.06 min | Onset time ([2]; unit s): <0.5 min | Adverse reaction: Convulsions [2]: 0 | Adverse reaction: Cough, broken-winded [2]: 0 | Adverse reaction: Euphoria [2]: 0 | Adverse reaction: Four limbs rigidity [2]: 1 | Adverse reaction: Red urine [2]: 8 | Adverse reaction: Slower breathing, Tetany convulsion [2]: 0 | Adverse reaction: Systemic stiffness, Convulsions, Opisthotonus [2]: 7 | Adverse reaction: Tongue stretching [2]: 1 | Adverse reaction: Tremor [2]: 1 | ED50 [3, 4]: 1 to 2 mg/kg | Approximate therapeutic index [3]: >10.3

C=CCOC(OC)(OC)C(=O)c1ccnn1[C@H](C)c1ccccc1 [Compound D7]
Minimal lethal dose [1]: >3.2 mg/kg | Righting reflex duration [2]: 0.55 ± 0.59 min | Sedation duration [2]: 8.52 ± 2.29 min | Onset time ([2]; unit min): <1 min | Adverse reaction: Convulsions [2]: 0 | Adverse reaction: Cough, broken-winded [2]: 0 | Adverse reaction: Euphoria [2]: 0 | Adverse reaction: Four limbs rigidity [2]: 1 | Adverse reaction: Red urine [2]: 8 | Adverse reaction: Slower breathing, Tetany convulsion [2]: 0 | Adverse reaction: Systemic stiffness, Convulsions, Opisthotonus [2]: 0 | Adverse reaction: Tongue stretching [2]: 1 | Adverse reaction: Tremor [2]: 1 | ED50 [3, 4]: 0.5 to 1 mg/kg | Approximate therapeutic index [3]: >5.4

CCSC(OC)(OC)C(=O)c1ccnn1[C@H](C)c1ccccc1 [Compound D2]
Minimal lethal dose [1]: >10.5 mg/kg | Righting reflex duration [2]: 5.82 ± 1.87 min | Sedation duration [2]: 13.71 ± 3.89 min | Onset time ([2]; unit min): <1 min | Adverse reaction: Convulsions [2]: 0 | Adverse reaction: Cough, broken-winded [2]: 2 | Adverse reaction: Euphoria [2]: 3 | Adverse reaction: Four limbs rigidity [2]: 0 | Adverse reaction: Red urine [2]: 8 | Adverse reaction: Slower breathing, Tetany convulsion [2]: 1 | Adverse reaction: Systemic stiffness, Convulsions, Opisthotonus [2]: 0 | Adverse reaction: Tongue stretching [2]: 2 | Adverse reaction: Tremor [2]: 8 | ED50 [3, 4]: 2 to 6 mg/kg | Approximate therapeutic index [3]: >6.6

COC(OC)(OCC(C)(C)C)C(=O)c1ccnn1[C@H](C)c1ccccc1 [Compound D6]
Minimal lethal dose [1]: >12.4 mg/kg | Righting reflex duration [2]: 1.33 ± 0.19 min | Sedation duration [2]: 7.35 ± 1.45 min | Onset time ([2]; unit min): <1 min | Adverse reaction: Convulsions [2]: 0 | Adverse reaction: Cough, broken-winded [2]: 0 | Adverse reaction: Euphoria [2]: 0 | Adverse reaction: Four limbs rigidity [2]: 1 | Adverse reaction: Red urine [2]: 8 | Adverse reaction: Slower breathing, Tetany convulsion [2]: 0 | Adverse reaction: Systemic stiffness, Convulsions, Opisthotonus [2]: 0 | Adverse reaction: Tongue stretching [2]: 0 | Adverse reaction: Tremor [2]: 2 | ED50 [3, 4]: 2 to 6 mg/kg | Approximate therapeutic index [3]: >7.3

COC(OC)(OC(C)C)C(=O)c1ccnn1[C@H](C)c1ccccc1 [Compound D4]
Minimal lethal dose [1]: >10.1 mg/kg | Righting reflex duration [2]: 0.98 ± 0.35 min | Sedation duration [2]: 7.28 ± 1.56 min | Onset time ([2]; unit min): <1 min | Adverse reaction: Convulsions [2]: 0 | Adverse reaction: Cough, broken-winded [2]: 0 | Adverse reaction: Euphoria [2]: 0 | Adverse reaction: Four limbs rigidity [2]: 0 | Adverse reaction: Red urine [2]: 8 | Adverse reaction: Slower breathing, Tetany convulsion [2]: 0 | Adverse reaction: Systemic stiffness, Convulsions, Opisthotonus [2]: 0 | Adverse reaction: Tongue stretching [2]: 0 | Adverse reaction: Tremor [2]: 0 | ED50 [3, 4]: 2 to 6 mg/kg | Approximate therapeutic index [3]: >5.0

COC(OC)C(=O)c1cncn1[C@H](C)c1ccccc1 [Compound D87]
Minimal lethal dose [1]: >13.2 mg/kg | Righting reflex duration [2]: 4.34 ± 0.54 min | Sedation duration [2]: 8.26 ± 2.74 min | Onset time ([2]; unit s): <0.5 min | Adverse reaction: Convulsions [2]: 0 | Adverse reaction: Cough, broken-winded [2]: 0 | Adverse reaction: Euphoria [2]: 0 | Adverse reaction: Four limbs rigidity [2]: 0 | Adverse reaction: Red urine [2]: 8 | Adverse reaction: Slower breathing, Tetany convulsion [2]: 0 | Adverse reaction: Systemic stiffness, Convulsions, Opisthotonus [2]: 5 | Adverse reaction: Tongue stretching [2]: 0 | Adverse reaction: Tremor [2]: 0 | ED50 [3, 4]: 1 to 2 mg/kg | Approximate therapeutic index [3]: >6.8

COC(=O)C(=O)c1ccnn1[C@H](C)c1ccccc1 [Compound D11]
Minimal lethal dose [1]: >30.2 mg/kg | ED50 [3, 4]: > 6 mg/kg | Approximate therapeutic index [3]: >4.6

COC(OC)(OC)C(=O)c1cnnn1[C@H](C)c1ccccc1 [Compound D42]
Minimal lethal dose [1]: >1.8 mg/kg | Righting reflex duration [2]: 1.38 ± 0.15 min | Sedation duration [2]: 3.83 ± 0.74 min | Onset time ([2]; unit min): <1 min | Adverse reaction: Convulsions [2]: 6 | Adverse reaction: Cough, broken-winded [2]: 0 | Adverse reaction: Euphoria [2]: 0 | Adverse reaction: Four limbs rigidity [2]: 0 | Adverse reaction: Red urine [2]: 8 | Adverse reaction: Slower breathing, Tetany convulsion [2]: 0 | Adverse reaction: Systemic stiffness, Convulsions, Opisthotonus [2]: 0 | Adverse reaction: Tongue stretching [2]: 1 | Adverse reaction: Tremor [2]: 1 | ED50 [3, 4]: 0.04 to 0.5 mg/kg | Approximate therapeutic index [3]: >4.2

COC(=O)C(=O)c1cncn1[C@H](C)c1ccccc1 [Compound D80]
Minimal lethal dose [1]: >12.2 mg/kg | Righting reflex duration [2]: 1.58 ± 0.61 min | Sedation duration [2]: 6.42 ± 1.68 min | Onset time ([2]; unit s): <0.5 min | Adverse reaction: Convulsions [2]: 0 | Adverse reaction: Cough, broken-winded [2]: 0 | Adverse reaction: Euphoria [2]: 0 | Adverse reaction: Four limbs rigidity [2]: 4 | Adverse reaction: Red urine [2]: 8 | Adverse reaction: Slower breathing, Tetany convulsion [2]: 0 | Adverse reaction: Systemic stiffness, Convulsions, Opisthotonus [2]: 0 | Adverse reaction: Tongue stretching [2]: 0 | Adverse reaction: Tremor [2]: 0 | ED50 [3, 4]: > 6 mg/kg | Approximate therapeutic index [3]: >2.9

C#CCOCC(OC)(OC)C(=O)c1cncn1[C@H](C)c1ccccc1 [Compound D74]
Minimal lethal dose [1]: >10.2 mg/kg | Righting reflex duration [2]: 1.29 ± 0.49 min | Sedation duration [2]: 4.78 ± 1.24 min | Onset time ([2]; unit min): <1 min | Adverse reaction: Convulsions [2]: 0 | Adverse reaction: Cough, broken-winded [2]: 0 | Adverse reaction: Euphoria [2]: 0 | Adverse reaction: Four limbs rigidity [2]: 1 | Adverse reaction: Red urine [2]: 8 | Adverse reaction: Slower breathing, Tetany convulsion [2]: 0 | Adverse reaction: Systemic stiffness, Convulsions, Opisthotonus [2]: 0 | Adverse reaction: Tongue stretching [2]: 0 | Adverse reaction: Tremor [2]: 1 | ED50 [3]: +++++ (+++++ indicates that the measured ED50 is greater than 6.00 mg/kg (excluding 6.00 mg/kg)) | Approximate therapeutic index [3]: >16.6

CCOC(OC)(OCC)C(=O)c1cncn1[C@H](C)c1ccccc1 [Compound D79]
Minimal lethal dose [1]: >2.7 mg/kg | Righting reflex duration [2]: 1.75 ± 0.76 min | Sedation duration [2]: 5.84 ± 1.46 min | Onset time ([2]; unit s): <0.5 min | Adverse reaction: Convulsions [2]: 6 | Adverse reaction: Cough, broken-winded [2]: 0 | Adverse reaction: Euphoria [2]: 0 | Adverse reaction: Four limbs rigidity [2]: 0 | Adverse reaction: Red urine [2]: 8 | Adverse reaction: Slower breathing, Tetany convulsion [2]: 0 | Adverse reaction: Systemic stiffness, Convulsions, Opisthotonus [2]: 0 | Adverse reaction: Tongue stretching [2]: 0 | Adverse reaction: Tremor [2]: 1 | ED50 [3, 4]: 0.5 to 1 mg/kg | Approximate therapeutic index [3]: >6.4

C[C@H](c1ccccc1)n1cncc1C(=O)C(=O)OCC(C)(C)C [Compound D86]
Minimal lethal dose [1]: >9.8 mg/kg | Righting reflex duration [2]: 1.24 ± 0.12 min | Sedation duration [2]: 7.88 ± 1.94 min | Onset time ([2]; unit min): <1 min | Adverse reaction: Convulsions [2]: 0 | Adverse reaction: Cough, broken-winded [2]: 0 | Adverse reaction: Euphoria [2]: 0 | Adverse reaction: Four limbs rigidity [2]: 0 | Adverse reaction: Red urine [2]: 8 | Adverse reaction: Slower breathing, Tetany convulsion [2]: 0 | Adverse reaction: Systemic stiffness, Convulsions, Opisthotonus [2]: 2 | Adverse reaction: Tongue stretching [2]: 0 | Adverse reaction: Tremor [2]: 0 | ED50 [3, 4]: 1 to 2 mg/kg | Approximate therapeutic index [3]: >7.3

CC(C)CCOC(=O)C(=O)c1cncn1[C@H](C)c1ccccc1 [Compound D82]
Minimal lethal dose [1]: >7.8 mg/kg | Righting reflex duration [2]: 0.98 ± 0.31 min | Sedation duration [2]: 6.70 ± 1.46 min | Onset time ([2]; unit min): <1 min | Adverse reaction: Convulsions [2]: 0 | Adverse reaction: Cough, broken-winded [2]: 0 | Adverse reaction: Euphoria [2]: 0 | Adverse reaction: Four limbs rigidity [2]: 2 | Adverse reaction: Red urine [2]: 8 | Adverse reaction: Slower breathing, Tetany convulsion [2]: 0 | Adverse reaction: Systemic stiffness, Convulsions, Opisthotonus [2]: 0 | Adverse reaction: Tongue stretching [2]: 1 | Adverse reaction: Tremor [2]: 0 | ED50 [3, 4]: 2 to 6 mg/kg | Approximate therapeutic index [3]: >6.3
